Values joined by “and” are separate entries in the source; they are usually repeats but may differ in a detail not shown here. Equal entries are not always repeated.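 Assay format: 96-well plates, 48-hour exposure. GI50 is the concentration that inhibits growth by half. TGI: total growth inhibition.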
Columns and labels:
Test in all cases: DTP human tumour cell line panel, 48 h
A498 renal = system: A498 renal
M14 melanoma = system: M14 melanoma
MOLT-4 leukemia = system: MOLT-4 leukemia
RXF 393 renal = system: RXF 393 renal
SK-MEL-5 melanoma = system: SK-MEL-5 melanoma
HT29 colon = system: HT29 colon
OVCAR-4 ovarian = system: OVCAR-4 ovarian
U251 CNS = system: U251 CNS

## O=C(NNc1ccc(Cl)cc1)C1CCC(CNS(=O)(=O)c2ccccc2Cl)CC1 (configuration not stated)
A498 renal
  GI50: 31.3 µM
  TGI: 74.9 µM
M14 melanoma
  GI50: 2.89 µM
  TGI: 10.7 µM
MOLT-4 leukemia
  GI50: 74.4 µM
  TGI: > 100 µM
RXF 393 renal
  GI50: 24.5 µM
  TGI: 65.7 µM
SK-MEL-5 melanoma
  GI50: 18.4 µM
  TGI: 39.2 µM

## COc1ccc(C(=O)c2cc(C)c(OC)c(C)c2)c(OC)c1NC(C)=O
A498 renal
  GI50: 0.0228 µM
  TGI: 0.0795 µM
HT29 colon
  GI50: 0.468 µM
  TGI: > 100 µM
M14 melanoma
  GI50: 0.15 µM
  TGI: > 100 µM
MOLT-4 leukemia
  GI50: 3.13 µM
  TGI: > 100 µM
OVCAR-4 ovarian
  GI50: 7.68 µM
  TGI: > 100 µM
SK-MEL-5 melanoma
  GI50: 0.364 µM
  TGI: 7.15 µM
U251 CNS
  GI50: 0.353 µM
  TGI: > 100 µM

## [N-]=[N+]=NCCCn1c2c(c3ccc([N+](=O)[O-])cc3c1=O)C(=O)c1cc(Br)ccc1-2
HT29 colon
  GI50: > 100 µM
  TGI: > 100 µM
M14 melanoma
  GI50: 3.02 µM
  TGI: > 100 µM
MOLT-4 leukemia
  GI50: 1.15 µM
  TGI: > 100 µM
OVCAR-4 ovarian
  GI50: > 100 µM
  TGI: > 100 µM
RXF 393 renal
  GI50: > 100 µM
  TGI: > 100 µM
SK-MEL-5 melanoma
  GI50: > 100 µM
  TGI: > 100 µM
U251 CNS
  GI50: 45.8 µM
  TGI: > 100 µM

## COc1cc(OC)cc(C2C3=C(COC3=O)Nc3cc(OC)ccc32)c1 (configuration not stated)
A498 renal
  GI50: < 0.01 µM
  TGI: < 0.0106 µM
HT29 colon
  GI50: < 0.01 µM
  TGI: > 36.6 µM
M14 melanoma
  GI50: < 0.01 µM
  TGI: 0.0111 µM
MOLT-4 leukemia
  GI50: < 0.01 µM
OVCAR-4 ovarian
  GI50: < 0.01 µM
  TGI: 37.6 µM
SK-MEL-5 melanoma
  GI50: < 0.01 µM
  TGI: 0.0178 µM
U251 CNS
  GI50: < 0.01 µM
  TGI: > 43.8 µM

## CSc1nc2nc3c(nc2c(=O)n1C)C(=O)c1ccccc1C3=O
A498 renal
  GI50: 0.186 µM
  TGI: 0.768 µM
HT29 colon
  GI50: 0.253 µM
  TGI: 0.637 µM
M14 melanoma
  GI50: 0.0994 µM
  TGI: 0.252 µM
MOLT-4 leukemia
  GI50: 0.227 µM
  TGI: 0.581 µM
RXF 393 renal
  GI50: 0.253 µM
  TGI: 0.819 µM
SK-MEL-5 melanoma
  GI50: 0.0169 µM
  TGI: 0.0322 µM
U251 CNS
  GI50: 0.229 µM
  TGI: 0.612 µM

## Cc1cc(N(CCOS(C)(=O)=O)CCOS(C)(=O)=O)ccc1C(=O)O
HT29 colon
  GI50: > 100 µM
  TGI: > 100 µM
M14 melanoma
  GI50: > 100 µM
  TGI: > 100 µM
OVCAR-4 ovarian
  GI50: > 100 µM
  TGI: > 100 µM
SK-MEL-5 melanoma
  GI50: > 100 µM
  TGI: > 100 µM
U251 CNS
  GI50: > 100 µM
  TGI: > 100 µM

## COc1cc(C2C3=C(COC3=O)N(CCO)c3cc4c(cc32)OCCO4)cc(OC)c1OC (configuration not stated)
A498 renal
  GI50: 0.14 µM
  TGI: 0.441 µM
HT29 colon
  GI50: 0.166 µM
M14 melanoma
  GI50: 0.181 µM
MOLT-4 leukemia
  GI50: 0.242 µM
  TGI: > 11.4 µM
OVCAR-4 ovarian
  GI50: 0.416 µM
  TGI: > 50 µM
SK-MEL-5 melanoma
  GI50: 0.179 µM
  TGI: 0.916 µM
U251 CNS
  GI50: 0.226 µM
  TGI: > 50 µM

## C1CCCCc2nc3c(nc2CCC1)c1nc2c(nc1c1nc4c(nc31)CCCCCCCC4)CCCCCCCC2
A498 renal
  TGI: > 100 µM
HT29 colon
  TGI: > 100 µM
M14 melanoma
  TGI: > 100 µM
MOLT-4 leukemia
  TGI: > 100 µM
U251 CNS
  TGI: > 100 µM

## CC/C(Cc1ccccc1)=C(\c1ccc(OCCN2CCCC2)cc1)c1ccc(OC(=O)NCc2ccccc2)cc1
HT29 colon
  GI50: 1.82 µM
  TGI: 3.47 µM
M14 melanoma
  GI50: 1.73 µM
  TGI: 3.31 µM
MOLT-4 leukemia
  GI50: 2.23 µM
  TGI: 5.66 µM
OVCAR-4 ovarian
  GI50: 1.86 µM
  TGI: 3.85 µM
RXF 393 renal
  GI50: 1.77 µM
  TGI: 3.28 µM
SK-MEL-5 melanoma
  GI50: 1.71 µM
  TGI: 3.11 µM
U251 CNS
  GI50: 1.77 µM
  TGI: 3.17 µM

## CCCOC(=O)c1c(C)n(C)c2scc[n+]12
A498 renal
  GI50: 24 µM
  TGI: 71.9 µM
HT29 colon
  GI50: 32.8 µM
  TGI: > 100 µM
M14 melanoma
  GI50: > 100 µM
  TGI: > 100 µM
MOLT-4 leukemia
  GI50: 53.9 µM
  TGI: > 100 µM
OVCAR-4 ovarian
  GI50: 37.1 µM
  TGI: > 100 µM
SK-MEL-5 melanoma
  GI50: 49.1 µM
  TGI: > 100 µM
U251 CNS
  GI50: 34 µM
  TGI: > 100 µM

## Clc1ccc(-c2c3ccc(=[N+]4CCCCC4)cc-3oc3cc(N4CCCCC4)ccc23)cc1
A498 renal
  GI50: 0.035 µM
  TGI: 0.15 µM
M14 melanoma
  GI50: 0.0696 µM
  TGI: 0.209 µM
MOLT-4 leukemia
  GI50: 0.159 µM
  TGI: 0.741 µM
RXF 393 renal
  GI50: 0.129 µM
  TGI: 0.279 µM
SK-MEL-5 melanoma
  GI50: 0.156 µM
  TGI: 0.291 µM

## c1ccc(OCCC[P+](c2ccccc2)(c2ccccc2)c2ccccc2)cc1
A498 renal
  GI50: 1.94 µM
  TGI: 7.97 µM
HT29 colon
  GI50: 0.984 µM
  TGI: 9.21 µM
M14 melanoma
  GI50: 2.53 µM
  TGI: 18.1 µM
MOLT-4 leukemia
  GI50: 3.12 µM
  TGI: 13.7 µM
OVCAR-4 ovarian
  GI50: 0.486 µM
  TGI: 17.7 µM
SK-MEL-5 melanoma
  GI50: 0.438 µM
  TGI: 1.74 µM
U251 CNS
  GI50: 1.63 µM
  TGI: 14 µM

## COc1ccc(-c2ccc(/C=N/n3c(COc4ccccc4Cl)nn(CN4CCOCC4)c3=S)o2)c([N+](=O)[O-])c1
HT29 colon
  GI50: 49.9 µM
  TGI: > 100 µM
M14 melanoma
  GI50: 22.3 µM
  TGI: 55.8 µM
MOLT-4 leukemia
  GI50: 19.3 µM
  TGI: 51.7 µM
OVCAR-4 ovarian
  GI50: 35.1 µM
  TGI: > 100 µM
RXF 393 renal
  GI50: 22.3 µM
  TGI: 61.6 µM
U251 CNS
  GI50: 26.1 µM
  TGI: > 100 µM

## C#CC1=CC(=O)C(OC)=CC1=O
A498 renal
  TGI: > 100 µM
HT29 colon
  TGI: 62 µM
M14 melanoma
  TGI: 39.1 µM
MOLT-4 leukemia
  TGI: > 100 µM
RXF 393 renal
  TGI: 30.1 µM
SK-MEL-5 melanoma
  TGI: 40 µM
U251 CNS
  TGI: > 100 µM

## CCCCCC(O)C(O)CCC[C@H](O)[C@H]1CC[C@H]([C@H]2CC[C@H]([C@H](O)CCCCCCCCCCCCC3=C[C@H](C)OC3=O)O2)O1 (some centres not stated)
HT29 colon
  TGI: 8.31 µM
M14 melanoma
  GI50: 6.98 µM
  TGI: 29.9 µM
OVCAR-4 ovarian
  TGI: 24.1 µM
RXF 393 renal
  GI50: 11.1 µM
  TGI: 30.9 µM
SK-MEL-5 melanoma
  TGI: 3.82 µM and 3.07 µM
U251 CNS
  GI50: 8.47 µM
  TGI: > 100 µM

— PubChem BioAssay (NCI)
